Reference: patent publication US20250346903A1, “USE OF CONJUGATES OF MICRORNA AND CARDIAC TARGETING PEPTIDES FOR TREATING HEART FAILURE” (Georgetown University, priority 2022, published 2025)

Experiments:
Connexin 43 (CNX43) = test: CNX43 phosphorylation in HCMs (immunostaining); format: cell-based, human; conditions: HCMs treated with PMA as a control
Protocol: Gap junction protein Connexin 43 (CNX43) is a known downstream target of PKC activity in cardiomyocytes. Thus, the effects of Ang2/PE and the CTP-microRNA106a on CNX43 in HCMs were studied. CNX43 is phosphorylated on serine 386 by PKCα. In untreated HCMs, gap junctions are prevalent (FIG. 14, Panel A), although only a few junctions are positive for phosphorylation of CNX43 (FIG. 14, Panel B). […] Phosphorylated CNX43 becomes widespread as HCMs are treated with Ang2/PE for 24 hours (FIG. 14, Panels E and F).

PKC = PKC localization in HCMs (anti-PKCα staining); format: cell-based, human; conditions: PMA 30 minutes
Excerpt: One potential mechanism of increased PLCβ1 expression is increased PKC activity. Thus, PKC localization was studied in treated HCMs. […] In HCMs treated with Ang2/PE, PKC was translocated to the plasma membrane (FIG. 12, Panel C).

HDAC4 [1] = test: Western blot of HDAC4 in PE/Ang2-treated HCMs; format: cell-based, human; conditions: 200 nM miRNA transfected, within 72 hours
Protocol: (§1) Human cardiomyocytes (HCMs) were subjected to 200 nM phenylephrine (PE) and 10 nM angiotensin 2 (Ang2) to induce hypertrophy (initial stages of heart failure). The HCMs were treated with PE/Ang2 for 24, 48, 72, 96, or 144 hours. Using TransIT-X2 transfection reagent, 200 nM of each miRNA, or in combination, was introduced into PE/Ang2-treated HCMs, followed by analyses of hypertrophic morphology and heart failure gene/protein expression.
(§2) The CTP-miRNA106a conjugate suppressed translation of each protein, as confirmed in three separate experiments. A significant difference was observed between each of the CTP-miRNA106a conjugate-treated set and PE/Ang2-treated HCMs after 144 hours, and no significant difference was observed between each of the CTP-miRNA106a conjugate-treated HCMs and untreated HCMs.

NfκB response element = NfκB response element luciferase assay in HCMs; format: cell-based, human; conditions: Ang2/PE 24 hours, miRNAs transfected
Excerpt: Once in the nucleus NfκB binds to an NfκB response element to initiate transcription of downstream genes. To study how the CTP-miRNA106a conjugate can impact this effect, a plasmid containing an NfκB response element driving luciferase production (Promega, Inc) was used to generate HCMs expressing this NfκB luciferase response element. […] Moreover, the effect of miRNA106a on impacting Ang2/PE-induced luciferase expression in HCMs was compared to miRNA17, miRNA20a, and miRNA93.

CaMKIIδ = test: Western blot of CaMKIIδ in PE/Ang2-treated HCMs; format: cell-based, human; conditions: 200 nM miRNA transfected, within 72 hours
Protocol: as §1, §2

GRK2 = test: Western blot of GRK2 in PE/Ang2-treated HCMs; format: cell-based, human; conditions: HCMs PE/Ang2 72 hours, then miRNA transfection
Protocol: The effects of miRNA17, miRNA20a, miRNA93, and miRNA106a on GRK2 signaling were assessed in HCMs treated with PE/Ang2. GRK2 has been identified to cause heart failure when mis-expressed.
The HCMs were subjected to 72 hours of PE/Ang2 treatment, and were subsequently treated with miRNA17, miRNA20a, miRNA93, or miRNA106a, or with the CTP-miRNA106a conjugate.

3′UTR of PLCβ1 = test: PLCβ1 3′UTR luciferase assay in HEK293 cells; format: cell-based, human; conditions: miRNA transfected 24 hours after plasmid
IL-6 = test: FACS of IL-6 expressing HCMs; format: cell-based, human; conditions: miR106a transfected, then Ang2/PE
Excerpt: (§3) To identify if activation of the NfκB pathway by Ang2/PE led to expression of genes that augment hypertrophy and heart failure, HCMs treated with Ang2/PE or treated with both Ang2/PE and the CTP-miRNA106a conjugated were compared to untreated control HCMs by FACS. […] In summary, the CTP-miRNA106a conjugated suppressed NfκB signaling activated by Ang2/PE.

IL-1β = test: FACS of IL-1β expressing HCMs; format: cell-based, human; conditions: miR106a (without CTP) transfected, then Ang2/PE
Excerpt: as §3

CaMKIIδ 3′UTR = test: 3′UTR-luciferase assay, CaMKIIδ; format: cell-based, human; conditions: miRNA106a with transfection reagent
TNF-α = test: FACS of TNF-α expressing HCMs; format: cell-based, human; conditions: miR106a transfected, then Ang2/PE
Excerpt: as §3

HDAC4 3′UTR = test: 3′UTR-luciferase assay, HDAC4; format: cell-based, human; conditions: miRNA106a with transfection reagent
HDAC4 [2] = test: HDAC4 localization by immunofluorescence in HCMs; format: cell-based, human; conditions: HCMs PE/Ang2 72 hours, treatment 24 hours
Excerpt: (§4) HDAC4 localization was also rescued by the CTP-miRNA106a conjugate. HDAC4 is nuclear in untreated HCMs (see FIG. 4, Panel C), but CaMKIIδ phosphorylation promotes HDAC4 movement into the cytoplasm (see FIG. 4, Panel D) (Hohl et al., 2013).

HCMs = test: Mitochondrial membrane potential, JC-1 staining of HCMs; format: cell-based, human; conditions: 200 nM miRNA106a transfected, 72 hours
Protocol: The effects of miRNA106a on mitochondrial health was assessed using the mitochondrial membrane potential (MMP) probe JC-1 staining. Healthy MMP is observed as JC-1 forms J-aggregates that fluoresce red (˜594 nm) while unhealthy MMP is recognized as green (˜488 nm) JC-1 monomers.

GRK2 3′UTR = test: 3′UTR-luciferase assay, GRK2 (control); format: cell-based, human; conditions: miRNA106a with transfection reagent; control without target sequence
[3] = tested on: Human cardiomyocytes (HCMs); test: Hypertrophic morphology / cell size of PE/Ang2-treated HCMs; format: cell-based; conditions: 200 nM transfection, 72 hours, no PE/Ang2
Protocol: as §1, §4

CCCCCCCCCCCCCC(=O)O[C@@H]1[C@@H](C)[C@@]2(O)[C@@H](C=C(CO)C[C@]3(O)C(=O)C(C)=C[C@@H]23)[C@@H]2C(C)(C)[C@]12OC(C)=O [PMA, phorbal myristate acetate]
phosphorylated CNX43 (Connexin 43 (CNX43)): the phosphorylation patterns are more robust | PKC localization (PKC): localized to the plasma membrane

miRNA17: microRNA, RNA sequence CAAAGUGCUUACAGUGCAGGUAG (SEQ ID NO 2) (listed as RNA, chemistry not given here)
HDAC4 overexpression induced by PE/Ang2 (HDAC4 [1]): suppressed | NfκB response element luciferase expression (NfκB response element): suppressed luciferase expression significantly | CaMKIIδ overexpression induced by PE/Ang2 (CaMKIIδ): suppressed | GRK2 expression (GRK2): returned to baseline levels

miRNA20a: microRNA, RNA sequence UAAAGUGCUUAUAGUGCAGGUAG (SEQ ID NO 3) (listed as RNA, chemistry not given here)
HDAC4 overexpression induced by PE/Ang2 (HDAC4 [1]): suppressed | NfκB response element luciferase expression (NfκB response element): lowered luciferase expression | CaMKIIδ overexpression induced by PE/Ang2 (CaMKIIδ): suppressed | GRK2 expression (GRK2): returned to baseline levels

miRNA93: microRNA, RNA sequence CAAAGUGCUGUUCGUGCAGGUAG (SEQ ID NO 4) (listed as RNA, chemistry not given here)
HDAC4 overexpression induced by PE/Ang2 (HDAC4 [1]): suppressed | NfκB response element luciferase expression (NfκB response element): lowered luciferase expression | CaMKIIδ overexpression induced by PE/Ang2 (CaMKIIδ): suppressed | decrease of luciferase activity (3′UTR of PLCβ1): ~50% | GRK2 expression (GRK2): returned to baseline levels

miRNA106a: microRNA, RNA sequence AAAAGUGCUUACAGUGCAGGUAG (SEQ ID NO 1) (chemistry not given here)
IL-6 expression (IL-6): very similar results as IL-1β | IL-1β expression (IL-1β): reversal of IL-1ß expression back to normal, untreated levels | CaMKIIδ 3′UTR luciferase expression (CaMKIIδ 3′UTR): targets the 3′UTRs of both CaMKIIδ and HDAC4 | TNF-α expression (TNF-α): very similar results as IL-1β | HDAC4 overexpression induced by PE/Ang2 (HDAC4 [1]): suppressed | NfκB response element luciferase expression (NfκB response element): suppressed luciferase expression significantly | CaMKIIδ overexpression induced by PE/Ang2 (CaMKIIδ): suppressed | HDAC4 3′UTR luciferase expression (HDAC4 3′UTR): targets the 3′UTRs of both CaMKIIδ and HDAC4 | HDAC4 localization (HDAC4 [2]): HDAC4 re-entry into the nucleus | JC-1 red:green ratio versus untreated (HCMs): no significant difference in red:green ratios | decrease of luciferase activity (3′UTR of PLCβ1): ~80% | GRK2 expression (GRK2): returned to baseline levels | GRK2 3′UTR luciferase expression (GRK2 3′UTR): no change in luciferase expression | growth in size (hypertrophy) in response to miRNA106a alone [3]: did not appear to grow in size
